{"source": "patent US9181286B2", "about": "“Pantothenate derivatives for the treatment of neurologic disorders” (Retrophin, Inc., priority 2012, dated 2015)", "key": {"HEK 293T cells": {"test_system": "HEK 293T cells", "experiment": "Acetyl-CoA level in HEK 293T cells by mass spectrometry", "assay_type": "cell-based, human", "details": "200 μM compound, p<0.0005", "description": "FIG. 1 is a bar graph showing the levels of acetyl CoA in human HEK 293T cells, as measured by mass spectrometry, following treatment with the compounds of Examples 2, 5, 7 and 12.\nThe compounds of Examples 2, 5, 7 and 12 were tested in immortalized human cells (HEK 293T). The amount of acetyl-CoA (the downstream result of PANK) following administration of the compounds of Examples 2, 5, 7 and 12 were measured by mass spectrometry.\nTreatment of HEK 293T cells with 20 μM of the compound of Example 7 afforded a 38% increase in acetyl CoA over baseline (p<0.005)."}, "Pank1−/− mice": {"test_system": "Pank1−/− mice", "experiment": "Liver Coenzyme A (mBBr-CoA, HPLC) in Pank1−/− mice", "assay_type": "in vivo", "description": "Compounds of the invention were tested for efficacy in Pank1^−/− mice (strain 129SvJ×C57BL/6J background) which were compared with age-matched Pank1^+/+ (strain 129SvJ×C57BL/6J) littermates, ages 8-12 weeks. Each mouse was identified with a coded ear tag and weighed on the first day of testing. Each compound was administered to 4-5 mice by intraperitoneal injection at a dose of 1.2 μmoles/g body weight in 5 μL dimethylsulfoxide once daily for 5 days, and mice were then fasted overnight, weighed and euthanized. Untreated mice received 5 μL dimethylsulfoxide once daily for 5 days and then were fasted overnight prior to weighing and euthanasia. Livers were excised from each mouse, aliquots were snap-frozen in liquid nitrogen, and stored at −80° C. Within 7 days, liver samples were thawed on ice, weighed and analyzed for coenzyme A content as described below. Efficacy was indicated by a statistically significant increase in the liver Coenzyme A levels in the Pank1^−/− mice as compared to the liver from untreated Pank1^−/− mice and by equivalence in comparison with Coenzyme A levels in untreated Pank1^+/+ mice.\nCoA Measurements: Extraction of Fibroblasts and Liver and Derivatization of Coenzyme A Prior to High Pressure Liquid Chromatography (HPLC) […]\nCoenzyme A Quantification by HPLC […]"}, "[1]": {"test_system": "Escherichia coli K-12 strain SJ16", "experiment": "SJ16 recovery (in vitro bacterial testing, growth without pantothenate)", "assay_type": "cell-based", "details": "test compound 8 μM in growth medium, 37° C., 18 hours, solid medium without calcium pantothenate (non-permissive)", "description": "Thus, it serves as a useful assay in determining whether a compound can rescue an organism deficient in PANK, the cause of PKAN. Compounds of the present invention were tested for toxicity and for the ability to support growth of Escherichia coli K-12 strains SJ16 (see, e.g., Jackowski et al., J. Bacteriol., 148, 926-932, 1981) and DV70 (see, e.g., Vallari et al., J. Bacteriol., 169, 5795-5800, 1987) under permissive and non-permissive conditions. The test compound in a solvent (dimethylsulfoxide, DMSO) was added to growth medium at a final concentration of 8 μM. Solvent alone (DMSO) was added to the growth medium at a final concentration ≦0.1% as a control.\nStrain SJ16 was grown at 37° C. for 18 hours on a solid medium containing agar (1.5%), M9 minimal essential salts (see, Miller, Experiments in Molecular Genetics. Cold Spring Harbor Laboratory, Cold Spring Harbor, N.Y., 1972), glucose (0.4%), methionine (50 μg/ml), and with (permissive) or without (non-permissive) calcium pantothenate (1 μM). Lack of growth with calcium pantothenate supplementation indicated toxicity. Growth without calcium pantothenate supplementation indicated the ability of the bacteria to metabolize the compound to yield pantothenate or β-alanine."}}, "data": [{"smiles": "COC(=O)CCNC(=O)[C@H](O)C(C)(C)COP(=O)(N[C@@H](C)C(=O)OC)Oc1ccccc1", "note": "(stereo partly drawn) [Example 2, methyl 3-((2R)-2-hydroxy-4-(((((S)-1-methoxy-1-oxopropan-2-yl)amino)(phenoxy)phosphoryl)oxy)-3,3-dimethylbutanamido)propanoate]", "values": [{"measurement": "increase in acetyl CoA over baseline", "setting": "HEK 293T cells", "value": 42, "unit": "%"}, {"measurement": "levels of CoA in PANK knockout mice (in words)", "setting": "Pank1−/− mice; PANK knockout mice, liver mBBr CoA, FIG. 2, compared with normal mice", "value": "restored levels of CoA to those seen in normal mice"}, {"measurement": "pmol mBBR-CoA/mg Liver, Mean", "setting": "Pank1−/− mice; pank1 KO mice, intraperitoneal 1.2 μmoles/g body weight once daily for 5 days, fasted overnight, liver, n=5", "value": 563.358, "unit": "pmol mBBR-CoA/mg Liver"}, {"measurement": "SJ16 Recovery", "setting": "[1]", "value": "Yes"}]}]}
